From patent publication US8569338B2, “Methods of using 4, 5, 6, 7-tetrahydroimidazo-[4,5-c]pyridine compounds” (Proximagen Ltd., priority 2008, dated 2013)

Target: purified recombinantly expressed human SSAO (Homo sapiens (Human), UniProt Q16853)
Assay: SSAO enzyme inhibition assay (HRP-coupled Amplex Red, benzylamine substrate)
Format: biochemical
Conditions: benzylamine 100 μM, approximately 60 minutes pre-incubation, pH 7.4, room temperature
Experimental: Biological Assay of the SSAO Enzyme Inhibitors
All assays were performed in room temperature with purified recombinantly expressed human SSAO. Enzyme was prepared essentially as described in Ohman et al. (Protein Expression and Purification 2006, 46, 321-331). The enzyme activity was measured with benzylamine as substrate and utilized the production of hydrogen peroxide for detection. In a horseradish peroxidise (HRP) coupled reaction, hydrogen peroxide oxidation of 10-acetyl-3,7-dihydroxyphenoxazine produced resorufin, which is a highly fluorescent compound (Zhout and Panchuk-Voloshina. Analytical Biochemistry 1997, 253, 169-174; Amplex® Red Hydrogen Peroxide/peroxidise Assay kit, Invitrogen A22188).
Briefly, test compounds were dissolved in dimethyl sulfoxide (DMSO) to a concentration of 10 mM. Dose-response measurements were assayed by either creating 1:10 serial dilutions in DMSO to produce a 7 point curve or by making 1:3 serial dilutions in DMSO to produce 11 point curves. The top concentrations were adjusted depending on the potency of the compounds and subsequent dilution in reaction buffer (50 mM sodium phosphate, pH 7.4) yielded a final DMSO concentration≦2%. Enzyme and compounds were set to pre-incubate in flat-bottomed microtiter plates for approximately 60 minutes before initiating the reaction by addition of a mixture of HRP, benzylamine and Amplex reagent. Fluorescence intensity was then measured at several time points (15 minutes, 20 minutes and 30 minutes) exciting at 544 nm and reading the emission at 590 nm). Final concentrations of the reagents in the assay wells were: SSAO enzyme 2 μg/ml, benzylamine 100 μM, Amplex reagent 20 μM, HRP 0.1 U/mL and varying concentrations of test compound. The inhibition was measured as % decrease of the signal compared to a control without inhibitor (only diluted DMSO). The background signal from a sample containing no SSAO enzyme was subtracted from all data points. Data was fitted to a four parameter logistic model and IC50 values were calculated using the GraphPad Prism 4 or XLfit 4 programs.

Chain of purified recombinantly expressed human SSAO (Q16853 29-763): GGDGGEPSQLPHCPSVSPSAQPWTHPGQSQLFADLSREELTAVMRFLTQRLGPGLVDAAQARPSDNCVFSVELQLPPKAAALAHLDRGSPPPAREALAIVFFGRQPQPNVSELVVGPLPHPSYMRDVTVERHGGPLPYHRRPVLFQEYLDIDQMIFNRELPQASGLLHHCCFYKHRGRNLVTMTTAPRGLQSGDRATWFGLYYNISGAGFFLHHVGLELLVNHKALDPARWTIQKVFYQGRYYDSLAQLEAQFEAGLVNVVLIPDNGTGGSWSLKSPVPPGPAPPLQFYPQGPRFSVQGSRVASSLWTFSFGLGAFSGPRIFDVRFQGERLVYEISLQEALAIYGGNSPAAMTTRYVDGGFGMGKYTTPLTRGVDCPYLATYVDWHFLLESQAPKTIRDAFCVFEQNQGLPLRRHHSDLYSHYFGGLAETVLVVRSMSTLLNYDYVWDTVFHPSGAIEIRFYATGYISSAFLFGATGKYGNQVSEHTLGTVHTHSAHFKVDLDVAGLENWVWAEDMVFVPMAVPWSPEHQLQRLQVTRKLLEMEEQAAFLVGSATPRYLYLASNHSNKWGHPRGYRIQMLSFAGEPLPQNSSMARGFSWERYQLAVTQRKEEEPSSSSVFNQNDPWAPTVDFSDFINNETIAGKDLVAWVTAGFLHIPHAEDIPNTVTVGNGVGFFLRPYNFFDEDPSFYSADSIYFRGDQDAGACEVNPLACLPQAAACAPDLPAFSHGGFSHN

SMILES	IC50 [µM]
CC(C)C1c2[nH]cnc2CCN1C(=O)OCc1cccnc1 (stereo not drawn) [Example 7, Pyridin-3-ylmethyl 4-isopropyl-1,4,6,7-tetrahydro-5H-imidazo[4,5-c]pyridine-5-carboxylate]	0.034
CC(C)C1c2[nH]cnc2CCN1C(=O)OCCOc1ccccc1 (stereo not drawn) [Example 14, 2-Phenoxyethyl 4-isopropyl-1,4,6,7-tetrahydro-5H-imidazo[4,5-c]pyridine-5-carboxylate]	0.048
CC(C)C1c2[nH]cnc2CCN1C(=O)OCC1CCOC1 (stereo not drawn) [Example 17, Tetrahydrofuran-3-ylmethyl 4-isopropyl-1,4,6,7-tetrahydro-5H-imidazo[4,5-c]-pyridine-5-carboxylate]	0.091
